In patent publication US8202865B2, “Oxadiazole derivatives” (Merck Serono SA, priority 2007, dated 2012):
Structures can show the parent of a compound that is named as a salt.

Assays:
S1P1 [1] = molecular target: T1, S1P1 (Homo sapiens, UniProt P21453); assay: Receptor binding assay, [33P]sphingosine 1-phosphate, membranes, WGA SPA beads; settings: membranes from CHO cells expressing S1P1; 25 pM [33P]S1P; 60 min RT
T1 construct: expressed in transfected cells; host or cells: CHO cells (membranes)
In short: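 CHO-cell membranes expressing S1P1 incubated with 25 pM [33P]S1P in 50 mM HEPES pH 7.5, 5 mM MgCl2, 100 mM NaCl, 0.4% fatty acid-free BSA with WGA SPA beads for 60 min at RT. Bound radioactivity counted by scintillation proximity; specific binding defined using 1000-fold excess unlabeled S1P.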

S1P1 [2] = molecular target: T1, S1P1; assay: 35S-GTPγS binding, S1P1 membranes; format: biochemical; settings: membranes from CHO cells expressing S1P1; 60 min 30° C.
In short: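 CHO-cell membranes expressing S1P1 or S1P3 (1-10 μg) incubated with compounds in 20 mM HEPES pH 7.4, 10 mM MgCl2, 140 mM NaCl, saponin, 0.2% BSA, 1.7 μM GDP and [35S]-GTPγS (20 μl of 1.5 nM added), 60 min at 30° C. Bound radioactivity expressed as % of S1P activation.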

S1P3 = molecular target: T2, S1P3 (Homo sapiens, UniProt Q99500); assay: 35S-GTPγS binding, S1P3 membranes; format: biochemical; settings: membranes from CHO cells expressing S1P3; 60 min 30° C.
T2 construct: expressed in transfected cells; host or cells: CHO cells (membranes)
Experimental: Receptor binding assay: Membranes were prepared from CHO cells expressing S1P1 or S1P3 for use in ligand and […] binding studies. Cells were suspended in 50 mM TRIS, pH 7.4, 2 mM EDTA, 250 mM Sucrose (buffer A) and 1× Complete protease inhibitor cocktail (Roche), and disrupted at 4° C. by N2 decompression using a cell disruption bomb (Parr Instrument). Following centrifugation at 1000 RPM for 10 min at 4° C., the supernatant was suspended in buffer A and centrifuged again at 19000 RPM for 60 min at 4° C. The pellet was then suspended in 10 mM HEPES, pH 7.4, 1 mM EDTA, 250 mM Sucrose (Buffer B), and 1× Complete EDTA-free protease inhibitor cocktail and homogenized using a potter. Membranes were flash frozen in liquid N2 and stored at −80° C. [33P]sphingosine 1-phosphate (3000 Ci/mmol; American Radiolabeled Chemicals, Inc.) was added to test compounds in DMSO. Membranes and WGA SPA beads (GE Healthcare) were added to give a final volume of 100 μl in 96-well plates with assay concentrations of 25 pM or 10 pM [33P]sphingosine 1-phosphate (respectively for S1P1 or S1P3), 50 mM HEPES, pH 7.5, 5 mM MgCl2, 100 mM NaCl, 0.4% fatty acid-free BSA, 1-5 μg/well of proteins and 100 μg/well of WGA SPA beads. Binding was performed for 60 min at RT on a shaker and bound radioactivity was measured on a PerkinElmer 1450 MicroBeta counter. Specific binding was calculated by subtracting remaining radioactivity in the presence of 1000-fold excess of unlabeled S1P. Binding data were analyzed using the GraphPad Prism program.
Measurements of ^35S-GTPγS Binding: Membranes (1 to 10 μg protein) prepared as described above, were incubated in 96-well Scintiplates (PerkinElmer) with test compounds diluted in DMSO, in 180 μl of 20 mM HEPES, pH 7.4, 10 mM MgCl2, 2 μg/well Saponin, 0.2% fatty acid free BSA (Assay buffer), 140 mM NaCl and 1.7 μM GDP. The assay was initiated with the addition of 20 μl of 1.5 nM [35S]-GTPγS (1100 Ci/mmol; GE Healthcare) in assay buffer. After 60 min incubation at 30° C. on a shaker, plates were centrifuged for 10 min at 2000 RPM. Supernatant was discarded and membrane bound radioactivity was measured on a PerkinElmer 1450 MicroBeta counter. Triplicate samples were averaged and expressed as % response relative to S1P activation in absence of compound (n=2).

T1 sequence (P21453 whole entry, species assumed): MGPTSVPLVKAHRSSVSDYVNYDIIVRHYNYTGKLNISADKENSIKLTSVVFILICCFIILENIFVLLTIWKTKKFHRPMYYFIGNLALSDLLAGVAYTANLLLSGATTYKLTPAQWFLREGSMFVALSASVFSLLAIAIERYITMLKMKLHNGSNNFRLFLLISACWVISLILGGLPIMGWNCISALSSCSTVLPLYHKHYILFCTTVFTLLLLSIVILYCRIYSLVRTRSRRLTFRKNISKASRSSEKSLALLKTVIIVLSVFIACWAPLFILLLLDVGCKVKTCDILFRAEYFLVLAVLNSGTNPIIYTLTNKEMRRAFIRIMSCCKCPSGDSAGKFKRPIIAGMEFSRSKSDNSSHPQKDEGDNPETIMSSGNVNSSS
T2 sequence (Q99500 whole entry, species assumed): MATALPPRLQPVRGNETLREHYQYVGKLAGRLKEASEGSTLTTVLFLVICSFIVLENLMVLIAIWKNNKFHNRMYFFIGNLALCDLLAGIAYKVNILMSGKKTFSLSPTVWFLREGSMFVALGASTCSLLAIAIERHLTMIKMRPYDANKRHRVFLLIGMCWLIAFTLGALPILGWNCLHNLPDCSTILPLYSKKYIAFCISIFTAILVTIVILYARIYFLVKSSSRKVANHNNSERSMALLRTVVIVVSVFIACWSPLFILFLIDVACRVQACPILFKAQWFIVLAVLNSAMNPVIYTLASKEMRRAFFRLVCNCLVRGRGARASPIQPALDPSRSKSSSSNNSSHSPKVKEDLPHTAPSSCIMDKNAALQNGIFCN

Ki (S1P1 [1])	EC50 (S1P1 [2])	EC50 (S1P3)	SMILES
213 nM	122 nM	2000 nM	CC1CCCCN1c1ccc(-c2nc(-c3ccc(C(=O)O)c(F)c3)no2)cc1NS(=O)(=O)N(C)C (stereo not drawn) [Example 73, 4-{5-[3-{[(dimethylamino)sulfonyl]amino}-4-(2-methylpiperidin-1-yl)phenyl]-1,2,4-oxadiazol-3-yl}-2-fluorobenzoic acid]
443 nM	408 nM	1770 nM	CCCS(=O)(=O)Nc1cc(-c2nc(-c3ccc(C(=O)O)c(F)c3)no2)ccc1N1CCCCC1C (stereo not drawn) [Example 74, 2-fluoro-4-(5-{4-(2-methylpiperidin-1-yl)-3-[(propylsulfonyl)amino]phenyl}-1,2,4-oxadiazol-3-yl)benzoic acid]
177 nM	182 nM	1350 nM	Cc1ccccc1-c1ccc(-c2nc(-c3ccc(C(=O)O)c(F)c3)no2)cc1CN1CCOCC1 [Example 75, 2-fluoro-4-{5-[2′-methyl-2-(morpholin-4-ylmethyl)biphenyl-4-yl]-1,2,4-oxadiazol-3-yl}benzoic acid, Trifluoroacetic acid salt]
2 nM	15 nM	3030 nM	CCc1ccccc1-c1ccc(-c2nc(-c3ccc(C(=O)O)c(F)c3)no2)cc1COC [Example 78, 4-{5-[2′-ethyl-2-(methoxymethyl)biphenyl-4-yl]-1,2,4-oxadiazol-3-yl}-2-fluorobenzoic acid]
74 nM	208 nM	> 20000 nM	COCc1cc(-c2nc(-c3ccc(C(=O)O)c(F)c3)no2)ccc1-c1ccccc1OC [Example 79, 2-fluoro-4-{5-[2′-methoxy-2-(methoxymethyl)biphenyl-4-yl]-1,2,4-oxadiazol-3-yl}benzoic acid]
28 nM	115 nM	2780 nM	COCc1cc(-c2nc(-c3ccc(C(=O)O)c(F)c3)no2)ccc1-c1ccccc1F [Example 81, 2-fluoro-4-{5-[2′-fluoro-2-(methoxymethyl)biphenyl-4-yl]-1,2,4-oxadiazol-3-yl}benzoic acid]
55 nM	34 nM	2800 nM	COCc1cc(-c2nc(-c3ccc(C(=O)O)c(F)c3)no2)ccc1-c1cc(F)ccc1C [Example 84, 2-fluoro-4-{5-[5′-fluoro-2-(methoxymethyl)-2′-methylbiphenyl-4-yl]-1,2,4-oxadiazol-3-yl}benzoic acid]
48 nM	155 nM	> 20000 nM	COCc1cc(-c2nc(-c3ccc(C(=O)O)c(F)c3)no2)ccc1-c1ccccc1C(F)(F)F [Example 86, 2-fluoro-4-{5-[2-(methoxymethyl)-2′-(trifluoromethyl)biphenyl-4-yl]-1,2,4-oxadiazol-3-yl}benzoic acid]
37 nM	63 nM	1250 nM	COCc1cc(-c2nc(-c3cccc(C(=O)O)c3)no2)ccc1-c1ccccc1C [Example 92, 3-{5-[2-(methoxymethyl)-2′-methylbiphenyl-4-yl]-1,2,4-oxadiazol-3-yl}benzoic acid]
10 nM	18 nM	1380 nM	COCc1cc(-c2nc(-c3ccc(C(=O)O)c(F)c3)no2)ccc1-c1cscc1C [Example 93, 2-fluoro-4-{5-[3-(methoxymethyl)-4-(4-methyl-3-thienyl)phenyl]-1,2,4-oxadiazol-3-yl}benzoic acid]
16 nM	48 nM	4960 nM	COCc1cc(-c2nc(-c3ccc(C(=O)O)c(F)c3)no2)ccc1-c1cccc(C)c1C [Example 95, 2-fluoro-4-{5-[2-(methoxymethyl)-2′,3′-dimethylbiphenyl-4-yl]-1,2,4-oxadiazol-3-yl}benzoic acid]
8 nM	64 nM	1940 nM	COCc1cc(-c2nc(-c3cc(F)c(C(=O)O)cc3F)no2)ccc1-c1ccccc1C [Example 97, 2,5-difluoro-4-{5-[2-(methoxymethyl)-2′-methylbiphenyl-4-yl]-1,2,4-oxadiazol-3-yl}benzoic acid]
11 nM	58 nM	1760 nM	CCOc1cc(-c2nc(-c3ccc(C(=O)O)c(F)c3)no2)ccc1-c1ccccc1C [Example 102, 4-[5-(2-ethoxy-2′-methylbiphenyl-4-yl)-1,2,4-oxadiazol-3-yl]-2-fluorobenzoic acid]
2.7 nM	13 nM	2810 nM	COCc1cc(-c2nc(-c3ccc(C(=O)O)c(F)c3)no2)ccc1N1CCCCC1C (stereo not drawn) [Example 114, 2-fluoro-4-{5-[3-(methoxymethyl)-4-(2-methylpiperidin-1-yl)phenyl]-1,2,4-oxadiazol-3-yl}benzoic acid]
2 nM	7 nM	2160 nM	CCOC(=O)C1(NC(=O)c2ccc(-c3noc(-c4ccc(-c5ccccc5C)c(COC)c4)n3)cc2F)CC1 [Example 118, Ethyl 1-[(2-fluoro-4-{5-[2-(methoxymethyl)-2′-methylbiphenyl-4-yl]-1,2,4-oxadiazol-3-yl}benzoyl)amino]cyclopropanecarboxylate]
2 nM	7.3 nM	502 nM	COCc1cc(-c2nc(-c3ccc(C(=O)NCCC(=O)O)c(F)c3)no2)ccc1-c1ccccc1C [Example 119, N-(2-fluoro-4-{5-[2-(methoxymethyl)-2′-methylbiphenyl-4-yl]-1,2,4-oxadiazol-3-yl}benzoyl)-beta-alanine]
4 nM	37.3 nM	1210 nM	COCc1cc(-c2nc(-c3ccc(C(=O)NC(C)CC(=O)O)c(F)c3)no2)ccc1-c1ccccc1C (stereo not drawn) [Example 123, 3-[(2-fluoro-4-{5-[2-(methoxymethyl)-2′-methylbiphenyl-4-yl]-1,2,4-oxadiazol-3-yl}benzoyl)amino]butanoic acid]
2 nM	22 nM	1000 nM	COCc1cc(-c2nc(-c3ccc(C(=O)NCC(=O)O)c(F)c3)no2)ccc1-c1ccccc1C [Example 124, N-(2-fluoro-4-{5-[2-(methoxymethyl)-2′-methylbiphenyl-4-yl]-1,2,4-oxadiazol-3-yl}benzoyl)glycine]
2.1 nM	6 nM	1220 nM	COCc1cc(-c2nc(-c3ccc(C(=O)NCCCC(=O)O)c(F)c3)no2)ccc1-c1ccccc1C [Example 127, 4-[(2-fluoro-4-{5-[2-(methoxymethyl)-2′-methylbiphenyl-4-yl]-1,2,4-oxadiazol-3-yl}benzoyl)amino]butanoic acid]
1.4 nM	0.85 nM	621 nM	COCc1cc(-c2nc(-c3cccc(CN(C)CC(=O)O)c3)no2)ccc1-c1ccccc1C [Example 141, N-(3-{5-[2-(methoxymethyl)-2′-methylbiphenyl-4-yl]-1,2,4-oxadiazol-3-yl}benzyl)-N-methylglycine, Hydrochloride salt]
0.8 nM	0.6 nM	281 nM	CCc1ccccc1-c1ccc(-c2nc(-c3cccc(CN(C)CC(=O)O)c3)no2)cc1COC [Example 143, N-(3-{5-[2′-ethyl-2-(methoxymethyl)biphenyl-4-yl]-1,2,4-oxadiazol-3-yl}benzyl)-N-methylglycine, hydrochloride salt]
0.8 nM	2.5 nM	422 nM	COCc1cc(-c2nc(-c3ccc(F)c(CN(C)CC(=O)O)c3)no2)ccc1-c1ccccc1C [Example 146, N-(2-fluoro-5-{5-[2-(methoxymethyl)-2′-methylbiphenyl-4-yl]-1,2,4-oxadiazol-3-yl}benzyl)-N-methylglycine, Hydrochloride salt]
